US20250057813A1, “APOPTOSIS RELATED PROTEIN IN THE TGF-BETA SIGNALING PATHWAY (ARTS) MIMETIC COMPOUNDS, COMPOSITIONS, METHODS AND USES THEREOF IN INDUCTION OF APOPTOSIS” (Carmel-Haifa University Economic Corporation Ltd., priority 2022, published 2025)

How the values were obtained:
[1] = target: T1, complex formation between XIAP and Bcl-2 (Homo sapiens, UniProt P10415+P98170); assay: Co-immunoprecipitation in HCT 116 XIAP KO cells transfected with GFP-XIAP and Flag-Bcl-2; type: cell-based; settings: 20 uM B3
T1 construct: expressed in transfected cells; host or cells: HCT 116 XIAP KO cells
T1 sequence (P98170 whole entry): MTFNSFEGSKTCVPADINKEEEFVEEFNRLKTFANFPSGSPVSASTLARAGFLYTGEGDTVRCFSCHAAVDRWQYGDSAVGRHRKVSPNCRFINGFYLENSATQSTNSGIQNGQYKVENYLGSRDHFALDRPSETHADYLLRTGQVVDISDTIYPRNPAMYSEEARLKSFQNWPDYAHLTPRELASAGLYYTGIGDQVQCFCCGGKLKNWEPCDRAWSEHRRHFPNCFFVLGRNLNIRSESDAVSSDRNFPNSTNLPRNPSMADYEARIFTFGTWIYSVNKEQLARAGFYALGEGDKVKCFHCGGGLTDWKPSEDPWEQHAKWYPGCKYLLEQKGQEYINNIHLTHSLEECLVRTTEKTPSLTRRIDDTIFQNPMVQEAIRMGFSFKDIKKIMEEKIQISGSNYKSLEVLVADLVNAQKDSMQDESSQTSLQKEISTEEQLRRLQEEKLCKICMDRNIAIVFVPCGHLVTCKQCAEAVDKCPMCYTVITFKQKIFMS
T1 sequence (P10415 whole entry): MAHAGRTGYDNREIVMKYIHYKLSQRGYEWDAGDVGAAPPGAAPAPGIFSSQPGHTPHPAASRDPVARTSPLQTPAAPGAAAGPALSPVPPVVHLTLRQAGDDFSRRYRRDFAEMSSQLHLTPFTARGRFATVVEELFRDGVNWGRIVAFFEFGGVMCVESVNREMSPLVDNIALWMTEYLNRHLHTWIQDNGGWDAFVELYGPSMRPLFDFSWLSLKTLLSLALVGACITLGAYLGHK
Experimental: Protein extracts were prepared with lysis buffer containing 150 mM NaCl, 50 mM Tris-HCl (pH 8), 1% NP-40, 0.5% deoxycholate acid with protease inhibitors (mini complete, Roche). Protein levels were determined and equal amounts were used for each sample. Lysates were pre-cleared with […] mouse IgG (Sigma) coupled with protein A/G sepharose mix (Amersham Biosciences). Complexes were incubated overnight at 4° C., followed by low-speed centrifugation. Supernatants were immunoprecipitated using […] of monoclonal anti-Bcl-2 antibodies (BD) overnight. Protein A/G sepharose beads were added to immunoprecipitate complex for 4 hours, collected and washed four times with PBS and then responded and heated in Sample buffer ×2 for 10 minutes.

HCT116 WT cells = assay: Western blot analysis of HCT116 WT cells; type: cell-based
Experimental: Cells were lysed in whole-cell extract buffer [25 mM HEPES, pH 7.7, […], 1.5 mM MgCl2, 0.2 mM EDTA, 0.1% Triton X-100, 100 μg/ml phenylmethylsulfonyl fluoride (PMSF) and protease inhibitor cocktail (Roche, 1:100 dilution)] and placed on ice for 30 min (vortexing once after 15 min). After 30 minutes, the samples were centrifuged at 13,000×g for 10 minutes at 4° C. The supernatants containing total protein were measured for protein concentration using Bio-Rad Protein Assay Dye Reagent Concentrate Kit. 40 to […] was separated by sodium dodecyl sulfate-polyacrylamide gel electrophoresis (SDS-PAGE) (12% or 7.5%), followed by transfer to a nitrocellulose membrane. The membranes were blocked with 5% (w/v) non-fat dried skimmed milk powder in PBS supplemented with 0.05% Tween-20 (PBS-T) for 1 h at RT. Next, primary antibodies were added at 4° C. overnight or for 2 h at room temperature. Membranes were then incubated with secondary antibody for 1 h at RT and washed three times for 15 min each with PBS-T. Western Bright ECL (Advansta) was added to the membrane for 30-60 s and analyzed using Image Quant LAS-4000 (GE Healthcare Life Sciences) and Image Quant LAS-4000 software (GE Healthcare Life Sciences).

A-375 cells = assay: Viability assay (SRB), cancer cell line screen; type: cell-based; settings: Homo sapiens; A-375, 72 hours incubation; read-out: GI50 score
Experimental: (§1) The assay was performed at six tenfold serial dilutions of the B3 compounds: 10 mM (stock), 1 mM, 100 μM, 10 μM, 1 μM and 0.1 μM. The screen was performed on 93 cancer cell lines and PBMC as normal cell control. The B3 compound was incubated with the cells for 72 hours. The following cancer cell lines were screened:
(§2) The Sulforhodamine B (SRB) assay was used as a screening method. Briefly, the method relies on the property of SRB, to bind stoichiometrically to proteins under mild acidic conditions and to be extracted under basic conditions. Thus, the amount of bound dye can be used as a proxy for cell mass, which can then be extrapolated to measure cell proliferation. The protocol can be divided into four main steps: preparation of treatment, incubation of cells with treatment of choice, cell fixation and SRB staining and absorbance measurement.

93 cancer cell lines = assay: Viability assay (SRB), cancer cell line screen; type: cell-based; settings: 72 hrs, 10 mM to 0.1 μM
Experimental: as §1, §2

XIAP-BIR3 = target: T2, XIAP-BIR3 (Homo sapiens, UniProt P98170); assay: MST binding of B3 to fluorescently labelled recombinant XIAP; settings: spread printed +/−11 μM, read-out: Kd, direct binding to XIAP-BIR3
T2 construct: fused on or other part: NT650 fluorescent dye attached covalently by maleimide coupling; the protein is otherwise untagged
T2 sequence (P98170 241-356 limits assumed): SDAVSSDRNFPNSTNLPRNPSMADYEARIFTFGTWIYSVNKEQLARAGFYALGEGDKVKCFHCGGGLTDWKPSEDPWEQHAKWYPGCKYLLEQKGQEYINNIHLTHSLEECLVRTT
Experimental: (§3) Microscale thermophoresis (MST) binding assays were performed by CreLux, a WuXi AppTech company in Germany, using recombinant ARTS, XIAP, Bcl-2 and cIAP1 proteins. Specifically, for performing experiments with untagged XIAP, a fluorescent label (NT650) was covalently attached to the protein (Maleimide coupling). The labelling was performed in a buffer containing 50 mM HEPES pH 7.0, 150 mM NaCl and 0.005% Tween-20.
as §3, with “ARTS” for “ARTS, XIAP, Bcl-2”, “XIAP” for “cIAP1”, “labeling” for “labelling”, “NaCl,” for “NaCl”, “Tween-20. A detailed description is provided in the Supplementary Materials and methods.” for “Tween-20.”

Jurkat cell lines = assay: PrestoBlue viability assay; type: cell-based; settings: 20 μM B3 vs 12.5 μM Etoposide, 24 h
MCF10AT1K (M2) cells = assay: 3D BME culture of M2 organoids, light microscopy; type: cell-based, Human
Experimental: Cells were harvested from their growth plates using 0.25% trypsin EDTA. Collected cells were cultured in Cultrex® growth factor reduced Basement Membrane Extract (BME: Trevigen, Inc) as follows: An 8 chamber glass slide system (Lab-TEK® II, Naperville, IL) was coated with 60 μl BME [Barkan D. et al., Cancer Research (2008)](protein concentration between […]; thickness-1-2 mm). 5×10^3 cells per well were re-suspended in DMEM/F12 supplemented with 2.5% DHS and 2% BME and cultured on the coated slides. Slides were incubated at 37° C., 5% CO2 incubator. Cells were re-fed every 4 days. Cell morphology was monitored by light microscopy. Immunofluorescence images were captured by Nikon Al—R confocal laser scanning microscope (Haifa University, Haifa, Israel).

[2] = target: T3, binding between XIAP and p53 (Homo sapiens, UniProt P98170); assay: BiFC assay in WT MEFs (VN-p53 and VC-XIAP); type: cell-based; settings: 20 μM B3 for 18 hours
T3 construct: expressed in transfected cells; host or cells: WT MEFs
T3 sequence (P98170 whole entry): as the sequence (P98170 whole entry) above
Source text: The split-Venus BiFC system was used to evaluate close proximity indicating possible direct binding between pairs of proteins. The proteins were fused either to the N-terminal part of the VenusYFP (yellow fluorescence protein) (VN) or the C-terminal domain (VC). All Venus fragments were fused to the C-terminal sequences of these proteins. The Jun and bFos pair was used as a positive control (p.c.), and the Jun and bFosdeltaZTP pair was used as a negative control (n.c.). A vector encoding dsRed was used as a transfection efficiency marker.

PBMC = assay: Viability assay (SRB), normal cell control; type: cell-based, Human; settings: 72 hrs, 10 mM to 0.1 μM
Experimental: as §1, §2

XIAP = XIAP (Homo sapiens, UniProt P98170); assay: Nano-DSF binding assay (Crelux); settings: binding curve, dose response
Sequence of XIAP (P98170 whole entry): as above

complex formation between XIAP and Bcl-2 [1]: significantly increase | GI50 (A-375 cells): 14.8 µM | Kd (XIAP-BIR3): 36 µM | binding between VN-p53 and VC-XIAP [2]: disrupted | direct binding to XIAP (XIAP): binds with high affinity
Structure (SMILES): Cn1ccnc1C(=O)c1ccc(NC(=O)C(=O)N[C@H](CO)Cc2ccccc2)cc1 [B3, (S)-N1-(1-hydroxy-3-phenylpropan-2-yl)-N2-(4-(1-methyl-1H-imidazole-2-carbonyl)phenyl)oxalamide]
XIAP levels (HCT116 WT cells; 20 uM, 24 hrs): decrease | cleavage of early apoptotic marker Caspase 9 (HCT116 WT cells; 20 uM, 24 hrs): increase | MDM2 levels (HCT116 WT cells; 10, 20, 30 μM B3, 24 hours): reduction | XIAP levels (HCT116 WT cells; 10, 20, 30 μM B3, 24 hours): reduction | cPARP or caspase3 (HCT116 WT cells; 10, 20, 30 μM B3, 24 hours): elevation | p53 levels (HCT116 WT cells; 10, 20, 30 μM B3, 24 hours): elevation | sensitivity of cancer cell lines to B3 (93 cancer cell lines): sensitive | cell death compared with Etoposide (Jurkat cell lines): as efficient as the strong pro-apoptotic chemotherapeutic agent Etoposide | cellular death (blebbing, cell shrinkage) (MCF10AT1K (M2) cells; 40 μM, 24 h): induced cellular death | cellular death (blebbing, cell shrinkage) (MCF10AT1K (M2) cells; increasing concentrations, 7 days, dose dependent): induced cellular death | sensitivity of normal cell control to B3 (PBMC): resistant
